This is an account of results in US5925618A, “Peptides useful as somatostatin antagonists” (American Cyanamid Company, priority 1998, dated 1999).

The test system of one assay is Male Sprague-Dawley rats. The experiment in a line: Serum growth hormone levels in anaesthetized rats (peptide 1, BIM 23014C). The class given is in vivo, rat. As to the method:
Evaluation in anaesthetized rats. Male Sprague-Dawley rats are anaesthetized with Sagatal and fitted so as to allow efficient intravenous treatment with control and test compounds as well as frequent blood sampling. Blood samples are tested for growth hormone (GH) levels by radioimmunoassay. Thirty minutes after the initiation of blood sampling, rats are given 5 μg, 25 μg or 50 μg of peptide 1.

The target of assay [1] is T1, S. cerevisiae (yeast) cells expressing SRIF receptors (Rattus norvegicus, UniProt P30680).
T1 construct: expressed in transfected cells; host or cells: S. cerevisiae strain LY364
The assay is described as follows: Yeast bioassay for SRIF antagonist activity (LY364 cells growing in response to SRIF, zone of growth inhibition). To be noted: Sample type 4th iteration; 10 μL of 5 mg/mL on disk, SRIF 10 nM, read after 3 days. The class given is cell-based. An excerpt: SRIF antagonist assay using S. cerevisiae (yeast) cells expressing SRIF receptors that grow in response to SRIF
Agar plates containing LY364 cells that are growing in the presence of added SRIF are the basis for a sensitive SRIF antagonist assay, whereby zones of growth inhibition result from the addition of SRIF antagonists to the surface of the agar plate (see L. A. Price, et al., Molecular and Cellular Biology, 15, 6188-6195, 1995, incorporated herein by reference).
In this assay, LY364 cells are grown overnight in 2 mL of synthetic complete(SC) medium (3.4 g/L YNB without amino acids and ammonium sulfate, 10 g/L ammonium sulfate and 1.4 g/L CSM-ura-trp) with glucose (2%) and without uracil and tryptophan. These cells are washed and cultured for 4 to 8 hours in 5 mL of SC medium with lactate (3%) and without uracil and tryptophan, and finally grown overnight in 5 mL of SC medium with galactose (2%) and without uracil and tryptophan. Molten (50° C.) SC agar medium with galactose (2%) and without uracil, tryptophan and histidine is adjusted to pH 6.8 with KOH, mixed with 2×10^4 cells/mL and SRIF (S-14, 10 nM) and poured into square (20×20 cm) petri dishes. Sterile filter disks are placed on the surface of the agar, and saturated with 10 μL of water or DMSO containing 5 mg/mL test peptides. After three days, the plates display a uniform cloudy background of LY264 cells growing in response to the added SRIF. […] This zone is quantified by measuring its diameter (mm), which varies according to the potency of the SRIF antagonist. Those peptides or mixtures of peptides displaying the largest zones of inhibition are further characterized.
Values are compared among samples in the same experiment, as the degree of yeast growth varies somewhat from assay to assay. For the first five sample types, in which progressively less complex mixtures of peptides are found, this assay is the primary determining factor in choosing which samples form the basis of subsequent syntheses.
Plates are read after 3 days. Samples shown in Table I in bold type are chosen for further synthesis. In Table I, all amino acids are D-amino acids and dashes represent undefined amino acid residues.

In a further assay the target is T2, rat SSTR2 (Rattus norvegicus, UniProt P30680).
T2 construct: expressed in transfected cells; host or cells: GH4C1 rat pituitary tumor cells
The assay is described as follows: cAMP accumulation in forskolin-stimulated GH4 C1/SSTR2 cells. The class given is cell-based. To be noted: GH4-C1; test peptide 2 μM; read-out: cAMP Assay, Intrinsic activity (percent reversal of SSTR2 activation by SRIF or MK678). An excerpt: A primary effect of SRIF upon mammalian cells is the reduction of cyclic adenosine 3',5'-monophosphate(cAMP) levels, via inhibition of adenylyl cyclase. This is the basis of a common assay for SRIF agonists and antagonists, whereby SRIF agonists reduce artificially stimulated cAMP levels, and SRIF antagonists reverse the effect of SRIF. The rat pituitary tumor cell line GH4 C1 predominantly expresses SSTR2, and responds to SRIF and to forskolin, a stimulator of adenylate cyclase (see C. M. Eppler, et al., J. Biol. Chem., 267, 15603-15612, 1992, incorporated herein by reference). A highly sensitive assay for SRIF agonists and antagonists results from additionally transfecting GH4 C1 cells with the cloned rat SSTR2, (see L. A. Price, et al., Molecular and Cellular Biology, 15, 6188-6195, 1995, incorporated herein by reference). This increases the response to SRIF and provides a greater dynamic range for the measurement of SRIF antagonist activity.
Stimulation of cells. GH4 C1 /SSTR2 cells, grown in DMEM with 10% bovine serum, are released from a tissue culture dish by incubation for several minutes at 37° C. with PBS containing 0.5 mM EDTA. Cells are washed in induction buffer (PBS containing 100 μM IBMX (an inhibitor of cAMP breakdown) and 2 mM CaCl2) at room temperature, and resuspended at 2×10^6 /mL in induction buffer. Into each well of a 96-well tray are added 50 μL of a 2× concentration of stimulants in induction buffer. These include (at final concentration) 1.25 μM forskolin, 100 nM SRIF or 10 nM of the SSTR2-selective agonist MK678 and test peptides at various concentrations. To initiate stimulation of the cells, 50 μL (100,000) cells are added to each well, mixed by shaking 10 seconds on a plate shaker and placed at 37° C. for 15 minutes. Stimulation is arrested and cells are lysed by adding 15 μL 0.33N HCl to each well and incubating the plate for 30 minutes at 37° C. Samples are neutralized by addition of 15 μL 0.25N NaOH/50 mM Hepes pH 7.4. Baseline cAMP levels are determined in samples with no added forskolin or SRIF, and each treatment is performed in triplicate.
cAMP assay. To measure accumulated cAMP in the samples, a radioimmunoassay is employed. The scintillation proximity assay (SPA, Amersham, Arlington Heights, Ill.) allows the rapid measurement of ^125 I cAMP bound to a specific antibody without separating bound radioligand from free radioligand. Each of the following reagents (50 μL) are added per well in a 96-well tray: supernatants from the cell stimulation; ^125 I cAMP; SPA beads conjugated to monkey anti-rabbit IgG antibodies; and rabbit anti-cAMP antibodies. For the standard curve, known amounts of cAMP (0.2-12.8 pmol) are added in place of cell supernatants. The 96-well tray is sealed, shaken at room temperature overnight and measured for bound radioligand in a MicroBeta liquid scintillation counter (Wallac, Gaithersburg, Md.). The standard curve is determined for each experiment by performing a nonlinear regression (exponential decay) analysis of cpm measured for the cAMP standards vs. their log concentrations, and test sample values are determined by using Prism software (Graphpad Software Inc., San Diego, Calif.) and are shown in Table II and FIG. 1. FIG. I illustrates the antagonist activity of Peptide 1.
The intrinsic activity of an SRIF antagonist is the percent reversal of the SSTR2, activation by SRIF or MK678, wherein 0% is defined by cAMP levels in samples treated with forskolin plus SRIF or MK678 and 100% is the cAMP level measured after treatment with forskolin alone. Therefore, increased intrinsic activity of a test compound indicates increased antagonist activity of said test compound.
FIG. […]
An inverse agonist is a compound that is not only a pure antagonist (i.e. lacking agonist activity), but also blocks the constitutive activity of an unoccupied receptor. One indication of inverse agonist activity is the ability of a SRIF antagonist to increase cAMP levels in the absence of added SRIF. […]
(In general: Changes in cAMP serve as a functional read-out for many G protein-coupled receptors.)

The structures appear in SMILES notation. Square brackets hold non-standard residues; d marks the D form. Peptide text beside a SMILES is read from it.

T2 sequence (P30680 whole entry): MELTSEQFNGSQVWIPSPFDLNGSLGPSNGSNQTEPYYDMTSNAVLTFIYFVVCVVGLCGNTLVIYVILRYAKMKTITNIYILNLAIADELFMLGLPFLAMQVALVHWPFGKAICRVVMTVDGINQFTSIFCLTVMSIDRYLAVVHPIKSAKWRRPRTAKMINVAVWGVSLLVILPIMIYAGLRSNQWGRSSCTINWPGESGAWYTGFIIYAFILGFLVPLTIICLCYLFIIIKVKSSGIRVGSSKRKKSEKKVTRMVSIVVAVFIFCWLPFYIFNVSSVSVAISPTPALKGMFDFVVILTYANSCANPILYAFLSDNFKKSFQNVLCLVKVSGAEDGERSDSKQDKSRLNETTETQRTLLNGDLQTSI
T1 sequence (P30680 whole entry): as above

Take `CC(C)[C@@H]1NC(=O)[C@H](CCCCN)NC(=O)[C@@H](Cc2c[nH]c3ccccc23)NC(=O)[C@H](Cc2ccc(O)cc2)NC(=O)[C@@H](NC(=O)[C@H](N)Cc2ccc3ccccc3c2)CSSC[C@@H](C(=O)N[C@H](C(N)=O)[C@@H](C)O)NC1=O` [BIM 23014C, reference compound]: the SGH in the assay with Male Sprague-Dawley rats (5 μg peptide 1 group, 10 μg BIM 23014C at 60 min, sample 75 min) came out at 7.0 ng/mL; with Male Sprague-Dawley rats (5 μg peptide 1 group, 60 min (time of 10 μg BIM 23014C dose)), 11.4 ng/mL; in the assay on Male Sprague-Dawley rats (25 μg peptide 1 group, 10 μg BIM 23014C at 60 min, sample 75 min), 6.8 ng/mL; in the assay with Male Sprague-Dawley rats (25 μg peptide 1 group, 60 min (time of 10 μg BIM 23014C dose)), 13.1 ng/mL; in the assay with Male Sprague-Dawley rats (50 μg peptide 1 group, 10 μg BIM 23014C at 60 min, sample 75 min) it was 3.5 ng/mL; in the assay on Male Sprague-Dawley rats (50 μg peptide 1 group, 60 min (time of 10 μg BIM 23014C dose)), 17.1 ng/mL. The “serum GH levels after SRIF agonist” value with Male Sprague-Dawley rats (10 μg at 60 minutes) is recorded as “induces the expected reduction in serum GH levels”.
For the compound `CC[C@@H](C)[C@@H](NC(=O)[C@@H](Cc1ccccc1)NC(=O)[C@@H](Cc1c[nH]cn1)NC(C)=O)C(=O)N[C@H](CCCNC(=N)N)C(=O)N[C@H](Cc1c[nH]c2ccccc12)C(=O)N[C@H](C)C(N)=O` [His Phe Ile Arg Trp Ala] (Ac-[dH][dF][dI][dR][dW][dA]-NH2), in assay [1], the “Inhibition Zone” value is given as 15 mm.
Same read-out and setting: in the case of `CC[C@@H](C)[C@@H](NC(=O)[C@@H](Cc1ccccc1)NC(=O)[C@@H](Cc1c[nH]cn1)NC(C)=O)C(=O)N[C@H](CCCNC(=N)N)C(=O)N[C@H](Cc1c[nH]c2ccccc12)C(=O)N[C@H](CC(N)=O)C(N)=O` [His Phe Ile Arg Trp Asn] (Ac-[dH][dF][dI][dR][dW][dN]-NH2) it was 15 mm; in that of `CC[C@@H](C)[C@@H](NC(=O)[C@@H](Cc1ccccc1)NC(=O)[C@@H](Cc1c[nH]cn1)NC(C)=O)C(=O)N[C@H](CCCNC(=N)N)C(=O)N[C@H](Cc1c[nH]c2ccccc12)C(=O)N[C@H](CCC(N)=O)C(N)=O` [His Phe Ile Arg Trp Gln] (Ac-[dH][dF][dI][dR][dW][dQ]-NH2), 16 mm.
Still for that read-out and setting: in the case of `CC[C@@H](C)[C@@H](NC(=O)[C@@H](Cc1ccccc1)NC(=O)[C@@H](Cc1c[nH]cn1)NC(C)=O)C(=O)N[C@H](CCCNC(=N)N)C(=O)N[C@H](Cc1c[nH]c2ccccc12)C(=O)NCC(N)=O` [His Phe Ile Arg Trp Gly] (Ac-[dH][dF][dI][dR][dW]G-NH2) it was 13 mm; in that of `CC[C@@H](C)[C@@H](NC(=O)[C@@H](Cc1c[nH]c2ccccc12)NC(=O)[C@@H](CCCNC(=N)N)NC(=O)[C@H](NC(=O)[C@@H](Cc1ccccc1)NC(=O)[C@@H](Cc1c[nH]cn1)NC(C)=O)[C@H](C)CC)C(N)=O` [His Phe Ile Arg Trp Ile] (Ac-[dH][dF][dI][dR][dW][dI]-NH2), 16 mm.
As for `CC[C@@H](C)[C@@H](NC(=O)[C@@H](Cc1c[nH]c2ccccc12)NC(=O)[C@@H](Cc1c[nH]cn1)NC(C)=O)C(=O)N[C@H](CCCNC(=N)N)C(=O)N[C@H](Cc1c[nH]c2ccccc12)C(=O)N[C@H](Cc1ccccc1)C(N)=O` [Peptide 21, h-w-i-r-w-f] (Ac-[dH][dW][dI][dR][dW][dF]-NH2), on rat SSTR2, the Emax worked out at 54.7%.
Same read-out and setting: in the case of `CC[C@@H](C)[C@@H](NC(=O)[C@@H](Cc1c[nH]cn1)NC(=O)[C@@H](Cc1c[nH]c2ccccc12)NC(C)=O)C(=O)N[C@H](CCCNC(=N)N)C(=O)N[C@H](Cc1c[nH]c2ccccc12)C(=O)N[C@H](Cc1ccccc1)C(N)=O` [Peptide 22, w-h-i-r-w-f] (Ac-[dW][dH][dI][dR][dW][dF]-NH2) it was 27.4%.
Same read-out and setting: in the case of `CC[C@@H](C)[C@@H](NC(=O)[C@@H](Cc1ccc(O)cc1)NC(=O)[C@@H](Cc1c[nH]c2ccccc12)NC(C)=O)C(=O)N[C@H](CCCNC(=N)N)C(=O)N[C@H](Cc1c[nH]c2ccccc12)C(=O)N[C@H](Cc1ccccc1)C(N)=O` [Peptide 23, w-y-i-r-w-f] (Ac-[dW][dY][dI][dR][dW][dF]-NH2) it was 5.64%.
Same read-out and setting: in the case of `CC[C@@H](C)[C@@H](NC(=O)[C@@H](Cc1c[nH]cn1)NC(=O)[C@@H](Cc1ccccc1)NC(C)=O)C(=O)N[C@H](CCCNC(=N)N)C(=O)N[C@H](Cc1c[nH]c2ccccc12)C(=O)N[C@H](Cc1ccccc1)C(N)=O` [Peptide 24, f-h-i-r-w-f] (Ac-[dF][dH][dI][dR][dW][dF]-NH2) it was 65.2%; in that of `CC[C@@H](C)[C@@H](NC(=O)[C@@H](CCCNC(=N)N)NC(=O)[C@@H](Cc1ccccc1)NC(C)=O)C(=O)N[C@H](CCCNC(=N)N)C(=O)N[C@H](Cc1c[nH]c2ccccc12)C(=O)N[C@H](Cc1ccccc1)C(N)=O` [Peptide 25, f-r-i-r-w-f] (Ac-[dF][dR][dI][dR][dW][dF]-NH2), 10.8%.
Take `CC[C@@H](C)[C@@H](NC(=O)[C@@H](Cc1ccccc1)NC(=O)[C@@H](Cc1c[nH]cn1)NC(C)=O)C(=O)N[C@H](CCCCN)C(=O)N[C@H](Cc1c[nH]c2ccccc12)C(=O)N[C@H](Cc1ccccc1)C(N)=O` [Peptide 27, h-f-i-k-w-f] (Ac-[dH][dF][dI][dK][dW][dF]-NH2): the Emax at rat SSTR2 was found to be 71.2%.
Same read-out and setting: in the case of `CC(=O)N[C@H](Cc1c[nH]cn1)C(=O)N[C@H](Cc1ccccc1)C(=O)N[C@@H](C(=O)N[C@H](CCCNC(=N)N)C(=O)N[C@H](Cc1c[nH]c2ccccc12)C(=O)N[C@H](Cc1ccccc1)C(N)=O)C(C)C` [Peptide 28, h-f-v-r-w-f] (Ac-[dH][dF][dV][dR][dW][dF]-NH2) it was 71.2%.
